Assay results from the CheMixHub ionic liquid set.

Assay: xn = mol fraction of the nth substance listed

CCCC[N+](CCCC)(CCCC)CCCC.O=[N+]([O-])[O-] + CCCCCCCCCCCC[N+](C)(C)C.[Br-] + O
viscosity [mPa·s], 100 kPa
Details	x2 = 5.421e-05, x1 = 0.0001802	x2 = 0.0001084, x1 = 0.0001801	x2 = 0.0001626, x1 = 0.0001801	x2 = 0.0002168, x1 = 0.0001801	x2 = 0.000271, x1 = 0.0001801	x2 = 0.0003252, x1 = 0.0001801	x2 = 0.0003794, x1 = 0.0001801	x2 = 0.0004335, x1 = 0.0001801	x2 = 0.0004877, x1 = 0.0001801	x2 = 0.0005418, x1 = 0.0001801
293.15 K	1.042	1.043	1.045	1.047	1.048	1.048	1.049	1.049	1.049	1.049
298.15 K	0.924	0.926	0.927	0.928	0.928	0.929	0.929	0.929	0.93	0.93
303.15 K	0.821	0.822	0.822	0.824	0.825	0.825	0.825	0.825	0.826	0.826
308.15 K	0.731	0.732	0.735	0.735	0.735	0.736	0.736	0.736	0.737	0.737
313.15 K	0.664	0.664	0.665	0.665	0.665	0.666	0.666	0.666	0.666	0.667
318.15 K	0.617	0.617	0.617	0.618	0.618	0.618	0.618	0.618	0.619	0.619

N[C@@H](Cc1c[nH]cn1)C(=O)O + CCCCCCCCCCCC[N+](C)(C)C.[Br-] + O
viscosity [mPa·s], 101 kPa
Details	293.15 K	298.15 K	303.15 K	308.15 K	313.15 K
x1 = 0.0001801, x2 = 0.0001083	1.03	0.904	0.816	0.738	0.668
x1 = 0.0001801, x2 = 0.0001624	1.033	0.908	0.816	0.741	0.669
x1 = 0.0001801, x2 = 0.0002165	1.035	0.909	0.821	0.745	0.67
x1 = 0.0001801, x2 = 0.0002706	1.038	0.918	0.823	0.748	0.672
x1 = 0.0001801, x2 = 0.0003247	1.043	0.925	0.827	0.751	0.674
x1 = 0.0001801, x2 = 0.0003788	1.048	0.927	0.839	0.753	0.676
x1 = 0.0001801, x2 = 0.0004329	1.056	0.931	0.843	0.756	0.68
x1 = 0.0001801, x2 = 0.000487	1.06	0.935	0.849	0.758	0.685
x1 = 0.0001801, x2 = 0.000541	1.062	0.935	0.851	0.76	0.689
x1 = 0.0001802, x2 = 5.413e-05	1.027	0.901	0.815	0.736	0.667
x1 = 0.0008997, x2 = 0.000544	1.041	0.906	0.823	0.737	0.651
x1 = 0.0008998, x2 = 0.0003809	1.032	0.891	0.808	0.728	0.646
x1 = 0.0008998, x2 = 0.0004352	1.035	0.894	0.812	0.732	0.647
x1 = 0.0008998, x2 = 0.0004896	1.038	0.9	0.818	0.734	0.649
x1 = 0.0008999, x2 = 0.0002721	1.029	0.885	0.803	0.724	0.644
x1 = 0.0008999, x2 = 0.0003265	1.03	0.888	0.806	0.727	0.645
x1 = 0.0009, x2 = 0.0001633	1.025	0.879	0.8	0.722	0.641
x1 = 0.0009, x2 = 0.0002177	1.027	0.881	0.802	0.722	0.643
x1 = 0.0009001, x2 = 5.443e-05	1.02	0.874	0.796	0.721	0.64
x1 = 0.0009001, x2 = 0.0001089	1.022	0.876	0.799	0.721	0.64
x1 = 0.001798, x2 = 0.0001644	1.065	0.915	0.85	0.756	0.685
x1 = 0.001798, x2 = 0.0002191	1.067	0.916	0.854	0.759	0.688
x1 = 0.001798, x2 = 0.0002739	1.068	0.919	0.858	0.76	0.691
x1 = 0.001798, x2 = 0.0003287	1.07	0.92	0.862	0.764	0.693
x1 = 0.001798, x2 = 0.0003835	1.072	0.923	0.867	0.771	0.696
x1 = 0.001798, x2 = 0.0004382	1.079	0.927	0.87	0.776	0.701
x1 = 0.001798, x2 = 0.000493	1.083	0.931	0.876	0.781	0.706
x1 = 0.001798, x2 = 0.0005477	1.089	0.939	0.881	0.786	0.709
x1 = 0.001799, x2 = 5.48e-05	1.061	0.908	0.842	0.751	0.68
x1 = 0.001799, x2 = 0.0001096	1.064	0.912	0.846	0.755	0.683

CCCCCCC(O)CO (configuration not stated) + CCCCCCCC[N+](CCCCCCCC)(CCCCCCCC)CCCCCCCC.[Br-] + [Cl-].[Cl-].[Co+2]
Details	viscosity [mPa·s]
296.1 K, 101.3 kPa, x2 = 0.4, x3 = 0.2	27000

CC(=O)N(C)C + CCCC[n+]1ccn(C)c1.F[B-](F)(F)F
viscosity [mPa·s], 101 kPa
Details	293.15 K	298.15 K	303.15 K	308.15 K	313.15 K	318.15 K	323.15 K
x1 = 1	–	–	–	–	0.778	–	–
x2 = 0	1.02	0.94	0.87	0.82	0.78	0.74	0.72

CCC(C)=O + CCCC[n+]1ccn(C)c1.F[B-](F)(F)F
viscosity [mPa·s]
Details	298.15 K	303.15 K	313.15 K	323.15 K	333.15 K
100 kPa, x2 = 0	–	0.367	0.333	0.304	0.29
100 kPa, x2 = 0.0997	–	0.817	0.737	0.688	0.595
100 kPa, x2 = 0.1995	–	1.594	1.424	1.27	1.189
100 kPa, x2 = 0.2996	–	2.941	2.486	2.135	1.878
100 kPa, x2 = 0.3997	–	5.054	4.146	3.479	2.97
100 kPa, x2 = 0.5001	–	8.51	6.778	5.465	4.57
100 kPa, x2 = 0.6001	–	14.01	10.62	8.302	6.74
100 kPa, x2 = 0.6998	–	22.67	16.37	12.55	9.78
100 kPa, x2 = 0.7999	–	35.13	24.24	17.78	13.54
100 kPa, x2 = 0.8993	–	54.16	35.18	24.79	18.41
101.33 kPa, x1 = 0.1005	67.9	–	–	–	–
101.33 kPa, x1 = 0.3107	22.7	–	–	–	–
101.33 kPa, x1 = 0.6995	3.17	–	–	–	–
